Measurements from article PMC4933729 (Clinical Pharmacokinetics, 2016).
“And” between values parts separate entries of the source, which are not always exact repeats. Equal values may be shown once. Read-outs that look alike come from different tables or passages of the source.

Assays:
[1] = test system: CYP enzymes, OCT1/OCT2, MATE 1, glucuronidation; conditions: cited from earlier work
[2] = type: in vivo, healthy volunteers; conditions: for Tmax: both, human, plasma, oral; for AUC from time zero to time t (AUCt) decrease: data not shown
[3] = Safety and tolerability assessments in the phase I studies; type: in vivo, healthy subjects; conditions: carisoprodol arm
[4] = type: in vivo, healthy volunteers; conditions: for change in exposures: with any of the coadministered medications, apart from stated exceptions
[5] = coadministration with ritonavir; cited from earlier work
[6] = coadministered with the 3D regimen; cited from earlier work
[7] = in the presence of the 3D regimen
[8] = upon coadministration with the 3D regimen
[9] = alone and with the 3D regimen (not affected / similar)
[10] = coadministration with the 3D regimen

Q: For `CC(=O)Nc1ccc(O)cc1` [Acetaminophen], which Metabolic pathway [1] is on record?
A: Glucuronidation

Q: With `CCCC(C)(COC(N)=O)COC(=O)NC(C)C` (stereo not shown) [Carisoprodol] as the compound, how does the Tmax [2] read?
A: 2 h

Q: What about the Cmax decrease [2, 7] of the same compound?
A: 46%

Q: And the exposures decrease [2, 8]?
A: ≤ 46%

Q: What about the subjects reporting somnolence [3] of the same compound?
A: five

Q: Which median tmax [2, 9] does the source give for `CN(C)CCC=C1c2ccccc2C=Cc2ccccc21` [Cyclobenzaprine] here?
A: 5.0 h

Q: What about the Cmax decrease [2, 7] of the same compound?
A: 32%

Q: What about the AUC decrease [2, 7] of the same compound?
A: 40%

Q: What about the exposures decrease [2, 8] of the same compound?
A: up to 46%

Q: What about the exposures decrease ([2]; upon coadministration with the 3D regimen, listed as cyclobenzaprine) of the same compound?
A: ≤ 40%

Q: And the Metabolic pathway [1]?
A: CYP3A4, 1A2, and 2D6 substrate

Q: With `COc1c(-c2ccc3cc(NS(C)(=O)=O)ccc3c2)cc(-n2ccc(=O)[nH]c2=O)cc1C(C)(C)C` [Dasabuvir] as the compound, how does the AUC increase ([4]; in the presence of SMZ/TMP) read?
A: 33%

Q: What about the “change in (other) exposure parameters” value ([4]; in the presence of SMZ/TMP) of the same compound?
A: < 20%

Q: And the exposures increase ([4]; in the presence of SMZ/TMP)?
A: ≤ 33%

Q: What about the change in exposures [4] of the same compound?
A: ≤ 25%

Q: For `COc1ccc2c3c1O[C@H]1C(=O)CC[C@H]4[C@@H](C2)N(C)CC[C@]314` [Hydrocodone], which Tmax [2] is on record?
A: 2 h

Q: And the AUC increase [2, 7]?
A: 90%

Q: What about the Cmax increase [2, 7] of the same compound?
A: 27%

Q: For `CCCC(C)(COC(N)=O)COC(N)=O` [Meprobamate], which Tmax [2] is on record?
A: 3 to 4 h

Q: And the “AUC change (increase or decrease)” value [2, 7]?
A: < 20%

Q: What about the “Cmax change (increase or decrease)” value [2, 7] of the same compound?
A: < 20%

Q: Which results are given for `CN(C)C(=N)N=C(N)N` [Metformin]?
A: median tmax [2, 9]: 4.0 h; Cmax decrease [2, 7]: 23%; AUC decrease [2, 7]: < 20% and 10%; Metabolic pathway [1]: OCT1/OCT2 substrate

Q: Which “harmonic mean t½” value [2, 10] does the source give for `CNCCC=C1c2ccccc2C=Cc2ccccc21` [Norcyclobenzaprine] here?
A: 53 h

Q: And the median tmax [2, 10]?
A: 24 h

Q: And the “Cmax change (increase or decrease)” value [2, 7]?
A: < 20%

Q: What about the AUC decrease [2, 7] of the same compound?
A: 26%

Q: And the “harmonic mean t½” value ([2]; medication alone)?
A: 86 h

Q: What about the median tmax ([2]; medication alone) of the same compound?
A: 36 h

Q: And the “proportion of AUC extrapolated after the last measurable timepoint” value (“proportion of AUC extrapolated” for short) ([2]; with the 3D regimen)?
A: 21%

Q: And the “AUC from time zero to time t (AUCt) decrease” value ([2]; with the 3D regimen)?
A: 7%

Q: What about the “proportion of AUC extrapolated” value ([2]; without the 3D regimen) of the same compound?
A: 42%

Q: Which Tmax [2] does the source give for `O=C1CN=C(c2ccccc2)c2cc(Cl)ccc2N1` [Nordiazepam] here?
A: 48 h

Q: And the Tmax ([2]; 2 mg)?
A: 96 h

Q: And the Cmax increase [2, 7]?
A: 10% and < 20%

Q: What about the “proportion of AUC extrapolated” value ([2]; with the 3D regimen) of the same compound?
A: 20%

Q: What about the “AUC from time zero to time t (AUCt) decrease” value ([2]; with the 3D regimen) of the same compound?
A: 3%

Q: And the “proportion of AUC extrapolated” value ([2]; without the 3D regimen)?
A: 46%

Q: With `COC(=O)N[C@H](C(=O)N1CCC[C@H]1C(=O)Nc1ccc([C@@H]2CC[C@@H](c3ccc(NC(=O)[C@@H]4CCCN4C(=O)[C@@H](NC(=O)OC)C(C)C)cc3)N2c2ccc(C(C)(C)C)cc2)cc1)C(C)C` [Ombitasvir] as the compound, how does the “change in (other) exposure parameters” value ([4]; in the presence of SMZ/TMP) read?
A: < 20%

Q: What about the change in exposures [4] of the same compound?
A: ≤ 25%

Q: What does the source list for `Cc1cnc(C(=O)N[C@H]2CCCCC/C=C\[C@@H]3C[C@@]3(C(=O)NS(=O)(=O)C3CC3)NC(=O)[C@@H]3C[C@@H](Oc4nc5ccccc5c5ccccc45)CN3C2=O)cn1` [Paritaprevir]?
A: Tmax ([4]; both, human, plasma, oral, median tmax, in the presence of metformin): 5.5 h; Cmax decrease ([4]; in the presence of SMZ/TMP): 22%; change in (other) exposure parameters ([4]; in the presence of SMZ/TMP): < 20%; change in exposures [4]: ≤ 25%; Cmax decrease ([4]; with metformin): 37%; Ctrough increase ([4]; with metformin): 22%

Q: For `CC(C)c1nc(CN(C)C(=O)N[C@H](C(=O)N[C@@H](Cc2ccccc2)C[C@H](O)[C@H](Cc2ccccc2)NC(=O)OCc2cncs2)C(C)C)cs1` [Ritonavir], which “change in (other) exposure parameters” value ([4]; in the presence of SMZ/TMP) is on record?
A: < 20%

Q: And the change in exposures [4]?
A: ≤ 25%

Q: What does the source list for `COc1cc(Cc2cnc(N)nc2N)cc(OC)c1OC` [Trimethoprim]?
A: AUC increase [2, 7]: 22%; Ctrough increase [2, 7]: 25%; changes in exposures (Cmax and AUC geometric mean ratios) [2, 8]: ≤ 25%; exposures increase [2, 8]: ≤ 20%; Metabolic pathway [1]: Weak to moderate CYP2C8 inhibitor; weak OCT2 inhibitor; MATE 1 inhibitor; increase in AUC [5]: 20%

Q: With `COc1c(-c2ccc3cc(NS(C)(=O)=O)ccc3c2)cc(-n2ccc(=O)[nH]c2=O)cc1C(C)(C)CO` [dasabuvir M1] as the compound, how does the exposures decrease ([4]; in the presence of SMZ/TMP, data not shown) read?
A: ≤ 19%

Q: With `COc1ccc2[nH]c([S+]([O-])Cc3ncc(C)c(OC)c3C)nc2c1` (stereo not shown) [omeprazole] as the compound, how does the exposures decrease [6] read?
A: ~ 40%
